14 compounds from patent US7038084B2, “Succinoylamino hydroxyethylamino sulfonamides useful as retroviral protease inhibitors” (G.D. Searle & Co., priority 1992, dated 2006) can be followed below.

The target of one series is T1, HIV protease (Human immunodeficiency virus type 1 group M subtype B, UniProt P04585).
T1 construct: HIV protease is diluted in the assay buffer to a final enzyme concentration of 12.3 nanomolar, based on a molecular weight of 10,780
The series is described as follows: HIV protease enzyme assay (fluorogenic substrate 2-aminobenzoyl-Ile-Nle-Phe(p-NO2)-Gln-ArgNH2). It counts as biochemical. The source says: The compounds of the present invention are effective HIV protease inhibitors. Utilizing an enzyme assay as described below, the compounds set forth in the examples herein disclosed inhibited the HIV enzyme. The preferred compounds of the present invention and their calculated IC50 (inhibiting concentration 50%, i.e., the concentration at which the inhibitor compound reduces enzyme activity by 50%) values are shown in Table 8. The enzyme method is described below. The substrate is 2-aminobenzoyl-Ile-Nle-Phe(p-NO2)-Gln-ArgNH2. The positive control is MVT-101 (Miller, M. et al, Science, 246, 1149 (1989)] The assay conditions are as follows:
The above described substrate is dissolved in DMSO, then diluted 10 fold in assay buffer. Final substrate concentration in the assay is 80 μM.
HIV protease is diluted in the assay buffer to a final enzyme concentration of 12.3 nanomolar, based on a molecular weight of 10,780.
The final concentration of DMSO is 14% and the final concentration of glycerol is 18%. The test compound is dissolved in DMSO and diluted in DMSO to 10× the test concentration; 10 μl of the enzyme preparation is added, the materials mixed and then the mixture is incubated at ambient temperature for 15 minutes. The enzyme reaction is initiated by the addition of 40 μl of substrate. The increase in fluorescence is monitored at 4 time points (0, 8, 16 and 24 minutes) at ambient temperature. Each assay is carried out in duplicate wells.

For the next series, the system named is HIV-1. The series is described as follows: HIV inhibition assay of acutely infected CEM cells (MTT). It counts as cell-based. As for the experimental part:
(§1) The HIV inhibition assay method of acutely infected cells is an automated tetrazolium based calorimetric assay essentially that reported by Pauses et al, J. Virol. Methods 20, 309–321 (1988). Assays were performed in 96-well tissue culture plates. CEM cells, a CD4^+ cell line, were grown in RPMI-1640 medium (Gibco) supplemented with a 10% fetal calf serum and were then treated with polybrene (2 μg/ml). An 80 μl volume of medium containing 1×10^4 cells was dispensed into each well of the tissue culture plate. To each well was added a 100 μl volume of test compound dissolved in tissue culture medium (or medium without test compound as a is control) to achieve the desired final concentration and the cells were incubated at 37° C. for 1 hour. A frozen culture of HIV-1 was diluted in culture medium to a concentration of 5×10^4 TCID50 per ml (TCID50=the dose of virus that infects 50% of cells in tissue culture), and a 20 μL volume of the virus sample (containing 1000 TCID50 of virus) was added to wells containing test compound and to wells containing only medium (infected control cells). Several wells received culture medium without virus (uninfected control cells). Likewise, the intrinsic toxicity of the test compound was determined by adding medium without virus to several wells containing test compound. In summary, the tissue culture plates contained the following experiments:
(§2) In experiments 2 and 4 the final concentrations of test compounds were 1, 10, 100 and 500 μg/ml. Either azidothymidine (AZT) or dideoxyinosine (ddI) was included as a positive drug control. […] DMSO was added to all control wells at an appropriate concentration.
(§3) Following the addition of virus, cells were incubated at 37° C. in a humidified, 5% CO2 atmosphere for 7 days. Test compounds could be added on days 0, 2 and 5 if desired. On day 7, post-infection, the cells in each is well were resuspended and a 100 μl sample of each cell suspension was removed for assay. A 20 μL volume of a 5 mg/ml solution of 3-(4,5-dimethylthiazol-2-yl)-2,5-diphenyltetrazolium bromide (MTT) was added to each 100 μL cell suspension, and the cells were incubated for 4 hours at […] in a 5% CO2 environment.
(§4) To each sample was added 100 μl of 10% sodium dodecylsulfate in 0.01 N HCl to lyse the cells, and samples were incubated overnight. The absorbance at 590 nm was determined for each sample using a Molecular Devices microplate reader. Absorbance values for each set of wells is compared to assess viral control infection, uninfected control cell response as well as test compound by cytotoxicity and antiviral efficacy.

For another series, the system named is CEM cells. In words: Intrinsic toxicity of test compound in uninfected CEM cells (MTT). It counts as cell-based. The note with it: 7 days. On the procedure: as §1, §2, §3, §4
Where [1] appears, read: Table 8, 80 μM substrate, 12.3 nanomolar enzyme, pH 6.4, read-out: IC50.
Where [2] appears, read: Human immunodeficiency virus 1, CCRF-CEM, 168 h.

Like-named read-outs stand apart in the source and are kept apart here.

For `CC(C)CN(C[C@@H](O)[C@H](Cc1ccccc1)NC(=O)[C@H](C)C(C)(C)C(=O)OCc1ccccc1)S(=O)(=O)c1ccccc1` [Entry 4], the concentration for half-maximal inhibition (IC50) (in general, the concentration at which inhibition is half-maximal) at HIV protease (setting [1]) amounted to 34 nM.

`CC(C)CCN(C[C@@H](O)[C@H](Cc1ccccc1)NC(=O)[C@H](C)C(C)(C)C(N)=O)S(=O)(=O)c1ccccc1` (single isomer, unassigned) [Entry 2]: in the series on HIV-1 (setting [2]), the midpoint of the response, the EC50, lay at 9 nM. Further, in the series with CEM cells (human), the TD50 is given as 60,000 nm. For the compound `COc1ccc(S(=O)(=O)N(CC(C)C)C[C@@H](O)[C@H](Cc2ccccc2)NC(=O)[C@H](C)C(C)(C)C(=O)OCc2ccccc2)cc1` [Entry 7], the IC50 at HIV protease (setting [1]) was determined as 16 nM. Still for that read-out and setting: the same measure for `CC(C)CCN(C[C@@H](O)[C@H](Cc1ccccc1)NC(=O)[C@H](C)C(C)(C)C(=O)O)S(=O)(=O)c1ccccc1` (single isomer, unassigned) [Entry 2]: 2 nM; for `COc1ccc(S(=O)(=O)N(CC(C)C)C[C@@H](O)[C@H](Cc2ccccc2)NC(=O)[C@H](C)C(C)(C)C(N)=O)cc1` [Entry 9]: 2 nM. For the compound `COc1ccc(S(=O)(=O)N(CC(C)C)C[C@@H](O)[C@H](Cc2ccccc2)NC(=O)[C@H](C)C(C)(C)C(=O)O)cc1` [Entry 5], the midpoint of the response in the series on HIV-1 (setting [2]), the EC50, lay at 27 nM. The TD50 in the series on CEM cells (human) is given as 200,000 nm.

With `COc1ccc(S(=O)(=O)N(CC(C)C)C[C@@H](O)[C@H](Cc2ccccc2)NC(=O)[C@H](C)C(C)(C)C(=O)O)cc1` [Entry 8], the concentration for half-maximal inhibition (IC50) on HIV protease (setting [1]) came to 2 nM.

Take `CC(C)CN(C[C@@H](O)[C@H](Cc1ccccc1)NC(=O)[C@H](C)C(C)(C)C(N)=O)S(=O)(=O)c1ccccc1` [Entry 4]: the 50% effective concentration (EC50) (commonly the concentration at which the effect is half-maximal) in the series on HIV-1 (setting [2]) came out at 5 nM. The TD50 in the series with CEM cells (human) is listed as 62,000 nm.

`CC(C)CN(C[C@@H](O)[C@H](Cc1ccccc1)NC(=O)[C@H](C)C(C)(C)C(=O)O)S(=O)(=O)c1ccccc1` [Entry 3] came in with a half-maximal inhibitory concentration (IC50) against HIV protease (Table 9, enzyme assay) of 1 nM. Besides, the midpoint of the response in the series on HIV-1 (setting [2]), the EC50, lay at 42 nM. For the same compound, the TD50 in the series with CEM cells (human) is reported as 220,000 nm. For `CC(C)CCN(C[C@@H](O)[C@H](Cc1ccccc1)NC(=O)[C@H](C)C(C)(C)C(=O)OCc1ccccc1)S(=O)(=O)c1ccccc1` (relative stereo) [Entry 1], at HIV protease (setting [1]), the IC50 was found to be 80 nM. Still for that read-out and setting: under `CC(C)CCN(C[C@@H](O)[C@H](Cc1ccccc1)NC(=O)[C@H](C)C(C)(C)C(N)=O)S(=O)(=O)c1ccccc1` (single isomer, unassigned) [Entry 3] stands 2 nM. As for “Butanediamide, N^4-[2-hydroxy-3-[(3-methylbutyl)(phenylsulfonyl)amino]-1-(phenylmethyl)propyl]-2,2,3-Trimethyl-, [1S-[1R*(S*),2S*]]- [Table 8 Entry 3]”, the IC50 is 2 nM at HIV protease (setting [1]) and 2 nM at HIV protease (Table 9, enzyme assay, read-out: IC50). The 50% effective concentration (EC50) in the series with HIV-1 (Table 9, CEM cells acutely infected with HIV-1, 7 days, read-out: EC50) worked out at 5 nM. Also, the TD50 in the series with CEM cells (Table 9, CEM cells without virus) is 58,000 nm. Regarding `CC(C)CN(C[C@@H](O)[C@H](Cc1ccccc1)NC(=O)[C@H](C)C(C)(C)C(=O)O)S(=O)(=O)c1ccccc1` [Entry 5], the IC50 at HIV protease (setting [1]) was determined as 1 nM. `CC(C)CCN(C[C@@H](O)[C@H](Cc1ccccc1)NC(=O)[C@H](C)C(C)(C)C(=O)O)S(=O)(=O)c1ccccc1` (single isomer, unassigned) [Entry 1] had a concentration giving a half-maximal response (EC50) with HIV-1 (setting [2]) of 15 nM.
